Test system: Aβ42
Assay: Cellular assay for inhibition of Aβ1-42 production (H4 APP751 SWE clone 8.20)
Format: cell-based
Settings: 19 h, H4 APP751 SWE clone 8.20 cells, 19 h incubation; read-out: Activity Rating (Aβ42 cellular IC50), class symbol
Procedure: Cellular Assays for Inhibition of Aβ1-40 and Aβ1-42 Production
H4 cells stably transfected with APP751 containing the Swedish mutation (H4 APP751 SWE clone 8.20, developed at BMS) were maintained in log phase through twice weekly passage at a 1:20 split. […] Following incubation for 19 h in 5% CO2 at 37° C., plates were briefly centrifuged (1000 rpm, 5 min). A 10 μl aliquot from each well was transferred to a second assay plate (Costar 3709) for Aβ40 measurements. Antibody cocktails were freshly prepared by dilution into 40 mM Tris-HCl (pH 7.4) with 0.2% BSA and added to assay plates. For Aβ42 measurements, antibodies specific for the Aβ42 neoepitope (565, developed at BMS; conjugated to the Wallac reagent (Perkin Elmer)) and the N-terminal sequence of Aβ peptide (26D6, developed at SIBIA; conjugated to APC (Perkin Elmer)) were mixed and 20 μl of the mixture was added to each well of the incubated cell plate yielding a final concentration of 0.8 ng/well 565 and 75 ng/well 26D6. For the Aβ40 measurements, antibodies specific for the Aβ40 neoepitope (TSD, developed at BMS; conjugated to the Wallac reagent (Perkin Elmer)) and 26D6 as described above were mixed and 20 μl of the mixture was added to the 10 μl aliquots which had been removed previously from the cell plate yielding a final concentration of 1.6 ng/well TSD and 17.5 ng/well 26D6. Assay plates containing antibodies were sealed with aluminum foil and incubated overnight at 4° C. Signal was determined using a Viewlux counter (Perkin Elmer) and IC50 values determined using curve fitting in CurveMaster (Excel Fit based).

SMILES	IC50
N#Cc1ccc2cc1OCC(O)CCNc1nc(nc3c1CCC3c1ccc(F)cc1)N2 (single isomer, unassigned) [Example 73A, 7-cyano-18-(4-fluorophenyl)-10,11,12,13,14,16,17,18-octahydro-15,2-(azeno)-8,4-(metheno)cyclopenta[h][1,6,10,12]oxatriazacycloheptadecin-11(3H)-ol]	0.01 to 0.1 µM
Clc1cn(-c2ccc3cc2OC/C=C/CCNc2nc(nc4c2CCC4c2ccccc2)N3)cn1 (stereo not drawn) [Example 5B, (11E)-7-(4-chloro-1H-imidazol-1-yl)-19-phenyl-3,10,13,14,15,17,18,19-octahydro-2,16-(azeno)-8,4-(metheno)cyclopenta[j][1,7,9,13]oxatriazacyclooctadecine]	0.01 to 0.1 µM
CC1C/C=C\COc2cc(ccc2-n2cnc(Cl)c2)Nc2nc(c3c(n2)C(c2ccccc2)CC3)N1 (stereo not drawn) [Example 6B, (11Z)-7-(4-chloro-1H-imidazol-1-yl)-14-methyl-19-phenyl-3,10,13,14,15,17,18,19-octahydro-2,16-(azeno)-8,4-(metheno)cyclopenta[j][1,7,9,13]oxatriazacyclooctadecine]	0.01 to 0.1 µM
CC1C/C=C/COc2cc(ccc2-n2cnc(Cl)c2)Nc2nc(c3c(n2)C(c2ccccc2)CC3)N1 (stereo not drawn) [Example 7B, (11E)-7-(4-chloro-1H-imidazol-1-yl)-14-methyl-19-phenyl-3,10,13,14,15,17,18,19-octahydro-2,16-(azeno)-8,4-(metheno)cyclopenta[j][1,7,9,13]oxatriazacyclooctadecine]	0.1 to 1 µM
Clc1cn(-c2ccc3cc2OCCOCCNc2nc(nc4c2CCC4c2ccccc2)N3)cn1 (stereo not drawn) [Example 8A, 7-(4-chloro-1H-imidazol-1-yl)-19-phenyl-10,11,13,14,15,17,18,19-octahydro-16,2-(azeno)-8,4-(metheno)cyclopenta[i][1,4,7,11,13]dioxatriazacyclooctadecine]	< 0.01 µM
Clc1cn(-c2ccc3cc2OCCCNc2nc(nc4c2CCC4c2ccccc2)N3)cn1 (stereo not drawn) [Example 9A, 7-(4-chloro-1H-imidazol-1-yl)-17-phenyl-11,12,13,15,16,17-hexahydro-10H-14,2-(azeno)-8,4-(metheno)cyclopenta[g][1,5,9,11]oxatriazacyclohexadecine]	< 0.01 µM
CN1CCCOc2cc(ccc2-n2cnc(Cl)c2)Nc2nc3c(c1n2)CCC3c1ccccc1 (stereo not drawn) [Example 10A, 7-(4-chloro-1H-imidazol-1-yl)-13-methyl-17-phenyl-11,12,13,15,16,17-hexahydro-10H-14,2-(azeno)-8,4-(metheno)cyclopenta[g][1,5,9,11]oxatriazacyclohexadecine]	0.01 to 0.1 µM
Clc1cn(-c2ccc3cc2OCCCCCNc2nc(nc4c2CCC4c2ccccc2)N3)cn1 (stereo not drawn) [Example 11B, 7-(4-chloro-1H-imidazol-1-yl)-19-phenyl-3,10,11,12,13,14,15,17,18,19-decahydro-2,16-(azeno)-8,4-(metheno)cyclopenta[f][1,7,9,13]oxatriazacyclooctadecine]	0.01 to 0.1 µM
Clc1cn(-c2ccc3cc2OCCCCNc2nc(nc4c2CCC4c2ccccc2)N3)cn1 (stereo not drawn) [Example 12A, 7-(4-chloro-1H-imidazol-1-yl)-18-phenyl-10,11,12,13,14,16,17,18-octahydro-15,2-(azeno)-8,4-(metheno)cyclopenta[h][1,6,10,12]oxatriazacycloheptadecine]	< 0.01 µM
CN1CCCCOc2cc(ccc2-n2cnc(Cl)c2)Nc2nc3c(c1n2)CCC3c1ccccc1 (stereo not drawn) [Example 13A, 7-(4-chloro-1H-imidazol-1-yl)-14-methyl-18-phenyl-10,11,12,13,14,16,17,18-octahydro-15,2-(azeno)-8,4-(metheno)cyclopenta[h][1,6,10,12]oxatriazacycloheptadecine]	< 0.01 µM

Same assay, conditions: 19 h, H4 APP751 SWE clone 8.20 cells, 19 h incubation; unit inferred; read-out: Activity Rating (Aβ42 cellular IC50), numeric value

SMILES	IC50
CC1C/C=C\COc2cc(ccc2-n2cnc(Cl)c2)Nc2nc(c3c(n2)C(c2ccccc2)CC3)N1 (stereo not drawn) [Example 6A, (11Z)-7-(4-chloro-1H-imidazol-1-yl)-14-methyl-19-phenyl-3,10,13,14,15,17,18,19-octahydro-2,16-(azeno)-8,4-(metheno)cyclopenta[j][1,7,9,13]oxatriazacyclooctadecine]	0.0036 µM
CC1C/C=C/COc2cc(ccc2-n2cnc(Cl)c2)Nc2nc(c3c(n2)C(c2ccccc2)CC3)N1 (stereo not drawn) [Example 7A, (11E)-7-(4-chloro-1H-imidazol-1-yl)-14-methyl-19-phenyl-3,10,13,14,15,17,18,19-octahydro-2,16-(azeno)-8,4-(metheno)cyclopenta[j][1,7,9,13]oxatriazacyclooctadecine]	0.0088 µM
Clc1cn(-c2ccc3cc2OCCCNc2nc(nc4c2CCC4c2ccccc2)N3)cn1 (stereo not drawn) [Example 9B, 7-(4-chloro-1H-imidazol-1-yl)-17-phenyl-11,12,13,15,16,17-hexahydro-10H-14,2-(azeno)-8,4-(metheno)cyclopenta[g][1,5,9,11]oxatriazacyclohexadecine]	0.017 µM
Clc1cn(-c2ccc3cc2OCCCCCNc2nc(nc4c2CCC4c2ccccc2)N3)cn1 (stereo not drawn) [Example 11A, 7-(4-chloro-1H-imidazol-1-yl)-19-phenyl-3,10,11,12,13,14,15,17,18,19-decahydro-2,16-(azeno)-8,4-(metheno)cyclopenta[f][1,7,9,13]oxatriazacyclooctadecine]	0.0038 µM
CN1CCCCOc2cc(ccc2-n2cnc(Cl)c2)Nc2nc3c(c1n2)CCC3c1ccccc1 (stereo not drawn) [Example 13B, 7-(4-chloro-1H-imidazol-1-yl)-14-methyl-18-phenyl-10,11,12,13,14,16,17,18-octahydro-15,2-(azeno)-8,4-(metheno)cyclopenta[h][1,6,10,12]oxatriazacycloheptadecine]	0.026 µM

Same assay, conditions: H4 APP751 SWE clone 8.20 cells, 19 h incubation; read-out: Activity Rating (Aβ42 cellular IC50), class symbol

SMILES	IC50
N#Cc1ccc2cc1OCC(O)CCNc1nc(nc3c1CCC3c1ccc(F)cc1)N2 (single isomer, unassigned) [Example 73C, 7-cyano-18-(4-fluorophenyl)-10,11,12,13,14,16,17,18-octahydro-15,2-(azeno)-8,4-(metheno)cyclopenta[h][1,6,10,12]oxatriazacycloheptadecin-11(3H)-ol]	0.01 to 0.1 µM
CN1CC=CCOc2cc(ccc2-n2cnc(Cl)c2)Nc2nc3c(c1n2)CCC3c1ccccc1 (stereo not drawn) [Example 3A, (11Z)-7-(4-chloro-1H-imidazol-1-yl)-14-methyl-18-phenyl-10,13,14,16,17,18-hexahydro-15,2-(azeno)-8,4-(metheno)cyclopenta[h][1,6,10,12]oxatriazacycloheptadecine]	< 0.01 µM
CN1CC=CCOc2cc(ccc2-n2cnc(Cl)c2)Nc2nc3c(c1n2)CCC3c1ccccc1 (stereo not drawn) [Example 3B, (11Z)-7-(4-chloro-1H-imidazol-1-yl)-14-methyl-18-phenyl-10,13,14,16,17,18-hexahydro-15,2-(azeno)-8,4-(metheno)cyclopenta[h][1,6,10,12]oxatriazacycloheptadecine]	0.01 to 0.1 µM
CN1CC=CCOc2cc(ccc2-n2cnc(Cl)c2)Nc2nc3c(c1n2)CCC3c1ccccc1 (stereo not drawn) [Example 4A, (11E)-7-(4-chloro-1H-imidazol-1-yl)-14-methyl-18-phenyl-10,13,14,16,17,18-hexahydro-15,2-(azeno)-8,4-(metheno)cyclopenta[h][1,6,10,12]oxatriazacycloheptadecine]	< 0.01 µM
CN1CC=CCOc2cc(ccc2-n2cnc(Cl)c2)Nc2nc3c(c1n2)CCC3c1ccccc1 (stereo not drawn) [Example 4B, (11E)-7-(4-chloro-1H-imidazol-1-yl)-14-methyl-18-phenyl-10,13,14,16,17,18-hexahydro-15,2-(azeno)-8,4-(metheno)cyclopenta[h][1,6,10,12]oxatriazacycloheptadecine]	0.01 to 0.1 µM
Clc1cn(-c2ccc3cc2OC/C=C/CCNc2nc(nc4c2CCC4c2ccccc2)N3)cn1 (stereo not drawn) [Example 5A, (11E)-7-(4-chloro-1H-imidazol-1-yl)-19-phenyl-3,10,13,14,15,17,18,19-octahydro-2,16-(azeno)-8,4-(metheno)cyclopenta[j][1,7,9,13]oxatriazacyclooctadecine]	< 0.01 µM
Clc1cn(-c2ccc3cc2OCCCCNc2nc(nc4c2CCC4c2ccccc2)N3)cn1 (stereo not drawn) [Example 12B, 7-(4-chloro-1H-imidazol-1-yl)-18-phenyl-10,11,12,13,14,16,17,18-octahydro-15,2-(azeno)-8,4-(metheno)cyclopenta[h][1,6,10,12]oxatriazacycloheptadecine]	0.01 to 0.1 µM
Fc1ccc(C2CCc3c4nc(nc32)Nc2ccc(-n3cnc(Cl)c3)c(c2)OCC=CCN4)c(F)c1 (stereo not drawn) [Example 14A, (11Z)-7-(4-chloro-1H-imidazol-1-yl)-18-(2,4-difluorophenyl)-10,13,14,16,17,18-hexahydro-15,2-(azeno)-8,4-(metheno)cyclopenta[h][1,6,10,12]oxatriazacycloheptadecine]	< 0.01 µM
Fc1ccc(C2CCc3c4nc(nc32)Nc2ccc(-n3cnc(Cl)c3)c(c2)OCC=CCN4)c(F)c1 (stereo not drawn) [Example 14B, (11Z)-7-(4-chloro-1H-imidazol-1-yl)-18-(2,4-difluorophenyl)-10,13,14,16,17,18-hexahydro-15,2-(azeno)-8,4-(metheno)cyclopenta[h][1,6,10,12]oxatriazacycloheptadecine]	0.01 to 0.1 µM

Source: patent publication US8637523B2, “Compounds for the reduction of beta-amyloid production” (Bristol-Myers Squibb Company, priority 2010, dated 2014)
